Experimental data published in BindingDB's records for doi:10.1021/cc100076k (Universidade Federal De SaO Carlo, 2010).

Biological target: T1, Cathepsin L2 (Homo sapiens, UniProt O60911)
T1 sequence (O60911 whole entry): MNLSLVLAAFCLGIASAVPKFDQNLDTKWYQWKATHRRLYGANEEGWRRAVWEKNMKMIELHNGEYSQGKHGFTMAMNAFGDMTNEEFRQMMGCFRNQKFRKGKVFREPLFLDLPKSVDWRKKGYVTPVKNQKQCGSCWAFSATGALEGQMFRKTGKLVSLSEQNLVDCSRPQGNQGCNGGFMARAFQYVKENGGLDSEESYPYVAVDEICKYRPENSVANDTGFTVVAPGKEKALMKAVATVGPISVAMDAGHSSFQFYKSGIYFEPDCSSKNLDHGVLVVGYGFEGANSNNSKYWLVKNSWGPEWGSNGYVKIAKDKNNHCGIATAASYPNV
Test: Inhibition Activity Assay
Settings: pH 5.5; 27 °C
Text: Recombinant human cathepsin V was expressed and purified as described previously.

| SMILES | IC50 |
| --- | --- |
| COc1ccc(-c2cc(=O)c3cc(F)ccc3o2)cc1 [Flavonid, 6[3,1]] | 0.8 µM |
| COc1ccc(-c2cc(=O)c3cc(F)ccc3o2)c(OC)c1 [Flavonid, 6[3,2]] | 1.6 µM |
| COc1ccc(C(=O)/C=C/c2ccc(OC)cc2OC)c(O)c1 [Flavonid, 5a] | > 50 µM |
| COc1cc(OC)c2c(=O)cc(-c3ccc(-c4ccccc4)cc3)oc2c1 [Flavonid, 6[2,6]] | > 50 µM |
| COc1ccc(-c2cc(=O)c3c(OC)cc(OC)cc3o2)c(OC)c1 [Flavonid, 6[2,2]] | 19 µM |
| COc1ccc(-c2cc(=O)c3cc(OC)ccc3o2)c(OC)c1 [Flavonid, 6[4,2]] | > 50 µM |
| O=c1cc(-c2ccc(-c3ccccc3)cc2)oc2ccc(F)cc12 [Flavonid, 6[3,6]] | 2.9 µM |
| COc1cccc(Cl)c1/C=C/C(=O)c1ccc(F)cc1O [Flavonid, 5b] | > 50 µM |
| COc1ccc(-c2cc(=O)c3cc(OC)ccc3o2)cc1 [6-methoxy-2-(4-methoxyphenyl)-1-benzopyran-4-one] | 12 µM |
| COc1ccc(-c2cc(=O)c3cc(F)ccc3o2)c(OC)c1OC [Flavonid, 6[3,3]] | 4.1 µM |
| COc1ccc2oc(-c3ccc(-c4ccccc4)cc3)cc(=O)c2c1 [Flavonid, 6[4,6]] | 19.2 µM |
| O=c1cc(-c2c(F)cccc2Cl)oc2cc(F)ccc12 [Flavonid, 6e] | > 50 µM |
| COc1ccc(-c2cc(=O)c3cc(Br)ccc3o2)c(OC)c1 [Flavonid, 6d] | 1.2 µM |
| COc1cc(OC)c2c(=O)cc(-c3ccc(OC)c(OC)c3OC)oc2c1 [Flavonid, 6[2,3]] | > 50 µM |
| COc1ccc2oc(-c3ccc(OC)c(OC)c3OC)cc(=O)c2c1 [Flavonid, 6[4,3]] | > 50 µM |
| COc1cccc(Cl)c1-c1cc(=O)c2ccc(F)cc2o1 [Flavonid, 6b] | > 50 µM |
